Measured values from patent publication US11590232B2, “Bioconjugates of neuropeptides derivatives” (CENTRE NATIONAL DE LA RECHERCHE SCIENTIFIQUE, priority 2018, dated 2023).

How the values were obtained:
[1] = In vivo imaging biodistribution (IVIS Lumina) in mice with λ-carrageenan-induced paw inflammation; set-up: species or system Swiss mice; settings: i.v. injection, λ-carrageenan administered mice
Method: In parallel, control non-inflamed shaved mice (injected with 20 μL saline into the right hind paw, instead of λ-carrageenan), received also injection of fluorescent LENK-SQ NPs. The biodistribution of the NPs was recorded at 0.5, 2, 4, 6 and 24 h after excitation at 640 nm and emission in the 695-775 nm filter respectively, using IVIS Lumina LT series III system (Caliper, Life science). During imaging, the mice were kept on the imaging stage under anesthesia with 2% isoflurane gas in oxygen flow (1 L/min) and were imaged in ventral position. Images and measures of fluorescence signals were acquired and analyzed with Living Imaging®. To measure photon radiance, regions of interest (ROI, threshold of 35%) were selected on the paw of the mice and average radiant efficiency values were used for quantification. Threshold of ROI for the inflamed paw was then pasted on the non-inflamed paw to compare the radiance with the same region.

[2] = Dynamic light scattering (DLS) measurement of LENK-SQ NPs: size, zeta potential; type: physicochemical; settings: in 0.1 mM KCl
Method: The mean particle size, polydispersity index (PDI) and zeta potential were primarily evaluated by DLS (Nano ZS, Malvern; 173° scattering angle at 25° C.).
The measurements were performed in triplicate following appropriate dilution of the nanoparticles in water (DLS) or in 0.1 mM KCl (zeta potential).

[3] = 37° C.
Method: In the case of LENK-SQ-Diox NPs, diluted serum (30% in 5% dextrose solution) was used for the release study. […] To quantify the residual LENK-SQ bioconjugate and the released LENK, the resulting supernatants (150 μL) were evaporated to dryness at 40° C. under nitrogen flow, and then solubilized in 150 μL of Milli-Q water.

[4] = system: central or peripheral opioid receptors; experiment: Opioid receptor blockade with naloxone or naloxone methiodide before agonist, Hargreaves test; type: in vivo, Sprague-Dawley rats; settings: for reduction of AUC value by NaI pre-treatment compared with agonist alone: NaI (naloxone, brain-permeant) 0.5 mg/kg s.c. 15 min before agonist; for reduction of AUC value by NaI-M pre-treatment compared with agonist alone: NaI-M (naloxone methiodide, brain-impermeant) 0.5 mg/kg s.c. 15 min before agonist
[5] = system: thermal hyperalgesia in λ-carrageenan-treated rats; experiment: Hargreaves test (thermal nociceptive test) in λ-carrageenan-induced inflammatory pain; type: in vivo, Sprague-Dawley rats
[6] = diluted mouse serum (30% in 5% dextrose solution)

With `CCCCCCCCCCCCCCCCCCN1/C(=C/C=C/C=C/C2=[N+](CCCCCCCCCCCCCCCCCC)c3ccccc3C2(C)C)C(C)(C)c2ccccc21.[O-][Cl+3]([O-])([O-])[O-]` [DiD solution] the “accumulation of fluorescence in the inflamed paw” value [1] was “no significant accumulation of fluorescence”.
With `CC(C)=CCC/C(C)=C/CC/C(C)=C/CC/C=C(\C)CC/C=C(\C)CCC(=O)NC(Cc1ccc(O)cc1)C(=O)NCC(=O)NCC(=O)NC(Cc1ccccc1)C(=O)NC(CC(C)C)C(=O)O` (centres unmarked) [LENK-SQ-Am, Leu-enkephalin-squalene Bioconjugate with Amide Spacer] the “zeta potential (sign of charge) of NPs” value [2] was “negative”, the “time stable in serum without significant decrease of bioconjugate” value ([3]; mouse serum) was ≥ 48 h and the “reduction of AUC value by NaI pre-treatment compared with agonist alone” value [4] was 73%. For the same compound, the “reduction of AUC value by NaI-M pre-treatment compared with agonist alone” value [4] was 96%.
For `CC(C)=CCC/C(C)=C/CC/C(C)=C/CC/C=C(\C)CC/C=C(\C)CCCOC(=O)COCC(=O)NC(Cc1ccc(O)cc1)C(=O)NCC(=O)NCC(=O)NC(Cc1ccccc1)C(=O)NC(CC(C)C)C(=O)O` (centres unmarked) [LENK-SQ-Dig, Leu-enkephalin-squalene Bioconjugate with diglycolic Spacer], the “zeta potential (sign of charge) of NPs” value [2] was “negative”, the “release of free LENK peptide” value ([3]; mouse serum) was “no presence of free peptide was detected” and the “time of complete disappearance of the bioconjugate” value ([3]; mouse serum) was 2 h. The “time of decline of PWL down to baseline” value ([5]; 20 mg/kg i.v., rats) was 220 min.
In the case of `CC(C)=CCC/C(C)=C/CC/C(C)=C/CC/C=C(\C)CC/C=C(\C)CCC(=O)OCOC(=O)C(CC(C)C)NC(=O)C(Cc1ccccc1)NC(=O)CNC(=O)CNC(=O)C(N)Cc1ccc(O)cc1` (centres unmarked) [LENK-SQ-Diox, Leu-Enkephalin-Squalene Bioconjugate with Dioxycarbonyl Spacer], the “zeta potential (sign of charge) of NPs” value [2] is reported as “net positive charge”, the “release of the free LENK peptide” value [3, 6] is reported as “progressively released the free LENK peptide” and the “time till which the concentration of the bioconjugate decreased gradually” value [3, 6] is reported as 7 h. For the same compound, the “reduction of AUC value by NaI pre-treatment compared with agonist alone” value [4] was 66% and the “reduction of AUC value by NaI-M pre-treatment compared with agonist alone” value [4] was 81%.
With `CN1CC[C@]23c4c5ccc(O)c4O[C@H]2[C@@H](O)C=C[C@H]3[C@H]1C5` [morphine] the “paw withdrawal latency (PWL)” value ([5]; 10 min post-injection, morphine 1 mg/kg, 3 h after λ-carrageenan, rats) was 12.87 ± 1.38 s, the “time post-administration at which no longer significant anti-hyperalgesic effect was observed” value ([5]; morphine 1 mg/kg, rats) was 100 min and the “maximal PWL values compared with basal PWL of control naïve rats” value ([5]; λ-carrageenan-treated rats) was “twice as high as those found in control naïve rats”.
